One substance from US20090176714A1, “METHOD OF REDUCING THE EFFECTS OF ABeta AND COMPOSITIONS THEREFORE” (priority 2004, published 2009) can be followed below.

The assay deals with tau. Description: Tau phosphorylation (AT8, phospho-tau(Thr231) immunohistochemistry, immunoblot, electron microscopy) in hippocampal slices. Type of assay: cell-based, mouse. The protocol: Mice were killed with CO2 and immediately perfused through the heart with phosphate buffered saline (PBS). The right hemispheres were fixed in 4% paraformaldehyde (PFA) overnight, sunk in 30% sucrose, and frozen in OCT embedding medium. Hippocampal slices were fixed in 4% PFA for 20 minutes, incubated in 30% sucrose overnight, and frozen in OCT embedding medium. Frozen sections with a width of 10 μm were taken through the hippocampus. Post-mortem human tissue was formalin fixed, cut at 10 μm, and boiled for 10 minutes in a 10 mM Tris buffer, […] for antigen retrieval. IGF-2 and TTR were detected with a 1:200 dilution of the polyclonal antibody against IGF-2 (F-20) or TTR (C-20; Santa Cruz Biotechnology, Santa Cruz, Calif.). Phospho-BAD (Ser112; Cell Signaling, Beverly, Mass.), and BAD (Stressgen, Victoria, British Columbia) were detected with a 1:250 dilution of the respective polyclonal antibody. Phosphorylated tau was detected with the monoclonal AT8 antibody (1:200; Research Diagnostics, Flanders, N.J.) and anti-phospho-tau(Thr231) (1:500; Calbiochem, San Diego, Calif.). As a control pre-immune rabbit or mouse IgG (Vector Laboratories, Burlingame, Calif.) or goat IgG (Santa Cruz) was used in place of the primary antibody. A biotinylated anti-goat IgG, anti-rabbit IgG, or anti-mouse IgG was used as the secondary antibody. Finally, the Vectastain Elite ABC kit (Vector) and tyramide conjugated to either Alexa Fluor 488 or 568 (Molecular Probes, Eugene, Oreg.) were used to visualize the antibody staining. Anti-NeuN (1:250; Chemicon International, Temecula, Calif.) and 4G8 (1:250; Signet, Dedham, Mass.) together with an anti-mouse IgG secondary antibody conjugated to Alexa Fluor 488 were used to detect NeuN and Aβ. The DNA binding dyes ToPro3 (Molecular Probes) or Hoechst 33258 (Sigma, St. Louis, Mo.) were used to visualize nuclei. Sections were imaged using either the Bio-Rad Laser Scanning Confocal system or epifluorescence (Zeiss, Thornwood, N.Y.). Representative figures were obtained from 3 APPSw mice and 3 non-transgenic controls, 3 animals per treatment for hippocampal slices, or from 4 goat IgG and 4 anti-TTR antibody infused mice.
Following treatment with 50 μM Aβ or reverse Aβ for 24 hours, hippocampal slice cultures were fixed with a mixture of 2% PFA/2.5% glutaraldehyde in 0.1 M Sorensons phosphate buffer (pH 7.4) for 1 hour and then post fixed for 1 hour in 2% osmium tetroxide in the same buffer. The slices were then dehydrated in an ethanol series and embedded in Epon epoxy resin. Ultrathin sections were cut on a Reichert-Jung microtome, placed on copper grids, and stained with routine concentrations of uranyl acetate and lead citrate. Micrographs were taken with a Philips CM120 electron microscope. […]

In the case of β-amyloid1-42 [Aβ], for the setting “25 μM or 50 μM”, the “AT8 (phosphorylated tau) staining of neurons in hippocampal neuronal fields” value is “many neurons within the hippocampal neuronal fields were AT8 positive”. Moreover, where the note is “25 μM or 50 μM Aβ”, the “Phospho-tau(Thr-231) staining of neurons” value was “several neurons stained positively for phospho-tau(Thr-231)”. Moreover, the “Levels of phosphorylated tau, immunoblot for phospho-tau(Thr-231)” value (50 μM) is on record as “increased the levels of phosphorylated tau”. Besides, under “50 μM Aβ, 24 hours”, the “Filaments within the cytoplasm of neurons, electron microscopy” value is given as “presence of long, straight filaments”.
